According to US11951105B2 (Lake O'Hara LLC, priority 2020, dated 2024):

Columns and labels:
[1] = PBPK modeling of schizophrenia patients treated according to modified dosing regimens; design: species or system human; conditions: for Days Reduced to Reach Pharmacokinetic Endpoints: EC80 / Days Reduced to Reach Pharmacokinetic Endpoints: Steady State: modified regimen of Table F vs FDA label, Obese
Text: In order to simulate brexpiprazole under various conditions, a whole-body PBPK model was constructed to capture the drug's kinetics in major tissues. Model tissue compartments included adipose, bone, brain, large intestine, small intestine, heart, kidney, liver, lung, muscle, spleen, stomach, and skin tissues, as well as venous and arterial blood compartments. In order to accurately capture first-pass clearance effects on the drug, the model also included correct representation of the gastrointestinal tract organs and the liver. […] Drug distribution into each tissue compartment was modeled assuming perfusion-limited kinetics, with partitioning into tissue described by a partition coefficient (Kp) estimated using methods described by Poulin and Theil (2002). Brexpiprazole-specific biochemical parameters such as the log of octanol:water partition coefficient (log P), negative log acid dissociation constant (pKa), fraction unbound in the plasma (fup), blood:plasma concentration ratio (BP), and clearance were obtained from literature; additional physiochemical properties used to calculate Kps were obtained via DrugBank. […] Simulations were carried out in a virtual population of 500 normal-weight and 500 obese individuals with age- and sex-specific physiological parameters (i.e. tissue flows and volumes) sampled from the National Health and Nutrition Examination Survey (NHANES) dataset.
PBPK Modeling of Schizophrenia Patients Treated with Higher Doses According to Modified Methods
A modified dosing regimen was developed so that obese and CYP2D6 PM patients reach therapeutic levels earlier (Table F). […] On day 8, patients returned to administering the recommended dose once daily. […] On day 15, patients returned to administering the recommended dose once daily.

[2] = cited from earlier work
CYP3A4 = CYP3A4 (Homo sapiens, UniProt P08684); conditions: based on the literature; cited from earlier work
CYP2D6 = conditions: cited from earlier work
[3] = brexpiprazole patients; cited from earlier work

Sequence of CYP3A4 (P08684 whole entry): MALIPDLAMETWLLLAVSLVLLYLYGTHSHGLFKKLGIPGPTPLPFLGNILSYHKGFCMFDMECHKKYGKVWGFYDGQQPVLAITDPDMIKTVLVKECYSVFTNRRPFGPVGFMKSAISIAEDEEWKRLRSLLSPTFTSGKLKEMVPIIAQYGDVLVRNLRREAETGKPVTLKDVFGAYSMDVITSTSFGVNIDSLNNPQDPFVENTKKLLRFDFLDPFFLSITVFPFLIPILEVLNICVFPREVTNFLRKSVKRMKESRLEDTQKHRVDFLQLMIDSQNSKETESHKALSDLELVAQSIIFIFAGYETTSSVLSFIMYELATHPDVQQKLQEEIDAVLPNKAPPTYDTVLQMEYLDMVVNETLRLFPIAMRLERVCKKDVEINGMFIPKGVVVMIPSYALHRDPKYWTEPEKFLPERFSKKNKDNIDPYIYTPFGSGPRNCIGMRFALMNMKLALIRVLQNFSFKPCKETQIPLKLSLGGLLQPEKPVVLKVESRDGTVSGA

In the case of `O=c1ccc2ccc(OCCCCN3CCN(c4cccc5sccc45)CC3)cc2[nH]1` [brexpiprazole, 7-{4-[4-(1-Benzothiophen-4-yl)piperazin-1-yl]butoxy}quinolin-2(1H)-one], the “Days Reduced to Reach Pharmacokinetic Endpoints: EC80” value ([1]; CYP2D6 EM) is reported as 3 days, the “Days Reduced to Reach Pharmacokinetic Endpoints: Steady State” value ([1]; CYP2D6 EM) is reported as -4 days and the “Days Reduced to Reach Pharmacokinetic Endpoints: EC80” value ([1]; CYP2D6 PM) is reported as 5 days. For the same molecule, the “Days Reduced to Reach Pharmacokinetic Endpoints: Steady State” value ([1]; CYP2D6 PM) was -29 days, the “days faster to reach therapeutic concentrations than once daily dosing” value ([1]; schizophrenia, normal-weight CYP2D6 PM, Modified Dosing Regimen 3) was “three” and the “days faster to reach therapeutic concentrations than with FDA label dosing” value ([1]; schizophrenia, obese CYP2D6 EM, twice the daily doses for the first 7 days (Regimen 1)) was “three”. The “days faster to reach therapeutic concentrations than once daily dosing” value ([1]; schizophrenia, obese CYP2D6 PM, twice the daily doses for the first 14 days (Regimen 2)) was “five”, the “share of brexpiprazole clearance due to other routes” value ([2]; based on the literature) was 10% and the “effect of weight on the pharmacokinetics of brexpiprazole” value ([2]; previous studies) was “less than 20%”. The renal clearance ([2]; share of clearance, model assumption) was ~1%, the “share of brexpiprazole clearance due to CYP3A4” value (CYP3A4) was 46.7% and the “decrease of baseline clearance by CYP2D6 PM status” value (CYP2D6; CYP2D6 poor metabolizers) was ~30%. The “share of brexpiprazole clearance due to CYP2D6” value (CYP2D6; based on the literature) was 43.3% and the akathisia rates [3] was “dose-dependent”.
